Measured values: patent publication US20240393292A1, “ALLERGY ANTIGEN AND EPITOPE THEREOF” (HOYU CO., LTD., priority 2019, published 2024)
Each block holds one substance with its values, some of them ahead of it.

Test system: IgE antibodies from patients
Experiment: Wheat epitope mapping (2): overlapping 10-amino-acid peptide fragments shifted by one amino acid;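 as to Rank of partial sequence as epitope binding to IgE antibody: key = sequence deemed particularly important within the common 15-residue sequence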;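 as to epitope sequence binding to IgE antibody, rank (Key/Preferably/More preferably): key of grades: preferably = shorter partial sequence still acting as epitope; more preferably = sequence improving IgE binding; key = particularly important sequence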
Assay type: binding, human
How it was run: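 Cellulose-bound 10-mer peptides offset by one residue were probed with patient serum IgE and detected by chemiluminescence. Secondary-antibody-only signals were subtracted per peptide. Residual binding was expressed as % of the parent overlapping peptide, scored as none (<30%), poor (30–<50%), somewhat poor (50–<70%) or retained (≥70%).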

[1] = serum of patient P3 (WDEIA), sequence without X
[2] = serum of patient G4 (adult, general immediate type allergy to wheat), sequence without X
[3] = serum of patient G9 (adult, general immediate type allergy to wheat), sequence without X

- epitope sequence binding to IgE antibody, rank (Key/Preferably/More preferably) (serum of patient P14 (WDEIA)): Key
Substance: 1758 (YLKK; REGION 1..4: note = epitope) [compound 1758]

- epitope sequence binding to IgE antibody, rank (Key/Preferably/More preferably) (serum of patient P13 (WDEIA)): Key
Substance: 1925 (QFPGQQ; REGION 1..6: note = epitope) [compound 1925]

- Epitope sequence binding to IgE antibody, rank of the sequence (serum of patient P29 (WDEIA), partial sequence): Preferably
Substance: 2733 (YKIGGI; REGION 1..6: note = epitope) [compound 2733]

- epitope sequence binding to IgE antibody, rank (Key/Preferably/More preferably) (serum of patient P33 (WDEIA)): Key
Substance: 1966 (QFPGQQ; REGION 1..6: note = epitope) [compound 1966]

- Rank of partial sequence as epitope binding to IgE antibody (serum of patient P28 (WDEIA), sequence without X): Key
Substance: 1631 (DKVPFVPISG; REGION 1..10: note = epitope) [compound 1631]

- Epitope sequence binding to IgE antibody, rank of the sequence (Key/Preferably/More preferably) (serum of patient G7 (adult, general immediate type allergy to wheat), sequence without X): Key
Substance: 2303 (LGGIDK; REGION 1..6: note = epitope) [compound 2303]

- Rank of partial sequence as epitope binding to IgE antibody [1]: Preferably
Substance: 1601 (AQLEAIRSL; REGION 1..9: note = epitope) [compound 1601]

- Epitope sequence binding to IgE antibody, rank of the sequence (Key/Preferably/More preferably) (serum of patient P27 (WDEIA), sequence without X): Key
Substance: 2288 (KRVIERF; REGION 1..7: note = epitope) [compound 2288]

- Rank of partial sequence as epitope binding to IgE antibody (serum of patient P14 (WDEIA), sequence without X): Preferably
Substance: 1532 (QVPLVQQQ; REGION 1..8: note = epitope) [compound 1532]

- epitope sequence binding to IgE antibody, rank (Key/Preferably/More preferably) (serum of patient P8 (WDEIA)): Key
Substance: 1914 (QQFPGQQ; REGION 1..7: note = epitope) [compound 1914]

- epitope sequence binding to IgE antibody, rank (Key/Preferably/More preferably) (serum of patient G4 (adult, general immediate type allergy to wheat)): Key
Substance: 1828 (LEALPKFLK; REGION 1..9: note = epitope) [compound 1828]

- Epitope sequence binding to IgE antibody, rank of the sequence (serum of patient P9 (WDEIA), sequence without X): Preferably
Substance: 1418 (YLQPQQPISQ; REGION 1..10: note = epitope) [compound 1418]

- epitope sequence binding to IgE antibody, rank (Key/Preferably/More preferably) (serum of patient P33 (WDEIA)): More preferably
Substance: 1964 (QQQFPGQQ; REGION 1..8: note = epitope) [compound 1964]

- Epitope sequence binding to IgE antibody, rank of the sequence [1]: Key
Substance: 1305 (NRRALR; REGION 1..6: note = epitope) [compound 1305]

- Rank of partial sequence as epitope binding to IgE antibody [2]: More preferably
Substance: 1669 (GYNPDKVPFV; REGION 1..10: note = epitope) [compound 1669]

- Epitope sequence binding to IgE antibody, rank of the sequence (Key/Preferably/More preferably) (serum of patient G2 (adult, general immediate type allergy to wheat), sequence without X): Key
Substance: 2480 (KAWSG; REGION 1..5: note = epitope) [compound 2480]

- Epitope sequence binding to IgE antibody, rank of the sequence (Key/Preferably/More preferably) [3]: Preferably
Substance: 2307 (RVIERFEK; REGION 1..8: note = epitope) [compound 2307]

- Epitope sequence binding to IgE antibody, rank of the sequence (Key/Preferably/More preferably) [3]: Key
Substance: 2308 (ERFEK; REGION 1..5: note = epitope) [compound 2308]

- Epitope sequence binding to IgE antibody, rank of the sequence (serum of patient P31 (WDEIA), partial sequence): Key
Substance: 2653 (EAAE; REGION 1..4: note = epitope) [compound 2653]

- Rank of partial sequence as epitope binding to IgE antibody (serum of patient P50 (child, general immediate type allergy to wheat), sequence without X): Key
Substance: 1651 (NPDKVP; REGION 1..6: note = epitope) [compound 1651]

- Rank of partial sequence as epitope binding to IgE antibody (serum of patient P16 (WDEIA), sequence without X): Key
Substance: 1614 (YNPD; REGION 1..4: note = epitope) [compound 1614]

- Epitope sequence binding to IgE antibody, rank of the sequence (serum of patient P30 (WDEIA), partial sequence): Key
Substance: 2689 (YKGPTL; REGION 1..6: note = epitope) [compound 2689]

- Epitope sequence binding to IgE antibody, rank of the sequence (Key/Preferably/More preferably) [2]: Key
Substance: 2301 (LGGIDK; REGION 1..6: note = epitope) [compound 2301]

- epitope sequence binding to IgE antibody, rank (Key/Preferably/More preferably) (serum of patient P32 (WDEIA)): Preferably
Substance: 1878 (TVRTLQRT; REGION 1..8: note = epitope) [compound 1878]

- Epitope sequence binding to IgE antibody, rank of the sequence (Key/Preferably/More preferably) (serum of patient P52 (child, general immediate type allergy to wheat), sequence without X): Preferably
Substance: 2411 (TEIVL; REGION 1..5: note = epitope) [compound 2411]

- epitope sequence binding to IgE antibody, rank (Key/Preferably/More preferably) (serum of patient P55 (child, general immediate type allergy to wheat)): Preferably
Substance: 1774 (YLKKVGYNP; REGION 1..9: note = epitope) [compound 1774]

- Epitope sequence binding to IgE antibody, rank of the sequence (serum of patient P20 (WDEIA), partial sequence): Key
Substance: 2507 (SQVSF; REGION 1..5: note = epitope) [compound 2507]
